Experiment [1] concerns the target T1, hMAO-B (Homo sapiens, UniProt P27338).
T1 construct: purchased Sigma-Aldrich Co. (St. Louis, MO, USA)
T1 sequence (P27338 1-520): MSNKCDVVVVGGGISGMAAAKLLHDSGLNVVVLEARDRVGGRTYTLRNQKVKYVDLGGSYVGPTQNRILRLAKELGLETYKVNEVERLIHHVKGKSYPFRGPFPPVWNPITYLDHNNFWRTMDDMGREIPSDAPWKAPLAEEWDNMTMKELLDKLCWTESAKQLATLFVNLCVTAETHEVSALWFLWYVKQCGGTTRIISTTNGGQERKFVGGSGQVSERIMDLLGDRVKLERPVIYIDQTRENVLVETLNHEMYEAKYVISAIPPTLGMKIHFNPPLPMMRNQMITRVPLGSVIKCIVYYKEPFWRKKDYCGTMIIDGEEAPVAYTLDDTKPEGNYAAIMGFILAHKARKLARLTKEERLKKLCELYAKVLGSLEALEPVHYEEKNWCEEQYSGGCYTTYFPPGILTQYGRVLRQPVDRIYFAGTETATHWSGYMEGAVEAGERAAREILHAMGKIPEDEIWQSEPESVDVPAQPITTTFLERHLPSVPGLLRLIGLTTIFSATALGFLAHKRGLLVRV
The experiment in a line: MAO-Glow inhibitory potency (IC50). The conditions noted are these: mean ± SEM, at least two experiments; LDS 4 μM. It is filed as biochemical. On the procedure: The inhibitory effects of the synthesized KKRs of hMAO-A and B were tested by measuring the decrease in arbitrary light units (ALU) signal produced by the optimized isozymes using the MAO-Glow™ Assay at 37 °C. In this assay, DMSO stock for each KKR compound was diluted with a reaction buffer of pH 7.4 to make a 4X working solution for a maximum final concentration of 100 μM and ≤1% DMSO. The experiments were run in the absence and presence of 4X the miscellaneous standards of MAO-BIs (DEP, PARG, and SAF) and MAO-AIs (PIRL and CLORG), with similar concentrations. In white opaque 96-well microplates, 12.5 μL of each compound was plated at RT and was followed by 25 μL of 2X cold hMAO-A or hMAO-B, for a final concentration of 0.44 U/mL. A related buffer substituted each isozyme to make the blank wells and substituted each compound to make the negative control wells. Following this, we added 12.5 μL of 4X LDS to make a final substrate concentration of 40- and 4-μM for hMAO-A and hMAO-B, respectively. All screen plates were incubated at 37 °C for 60 min. The plates of 50 μL/well were then taken out from the incubator, and their reactions were stopped by an equal volume of 50 μL of reporter luciferin detection reagent (RLDR). After 30 min, the luminescence signals for all plates were read on a Synergy HTX Multi-reader from Bio-Tek (Winooski, VT, USA).
The experiments were performed in the presence and absence of the standard PILR. In white opaque 96-well plates, each KKR compound was serially diluted with a reaction buffer of pH 7.4 at the highest possible maximum final concentration, and the least used DMSO (<2%). In blank wells, the related reaction buffer substituted the isozyme. In negative control wells, the reaction buffer substituted each compound concentration. Then, the procedure was carried out as mentioned above (Section 4.2.2), and the reaction was detected on the Bio-Tek Synergy HTX Multi-Reader. The IC50 of each KKR on both isozymes was determined and subsequently the RSA and RSB was calculated.
Statistical analyses were performed using the GraphPad Prism program (version 6.07 for Windows) from the GraphPad Prism Software Incorporated (San Diego, CA, USA). All data points and parameters were expressed as the mean ± SEM. All parameters were calculated from non-linear and linear regressions with the best R^2 values, no less than 93%. The inhibitory concentration of 50% of isozyme (IC50) of each compound was obtained by the interpolation of a normalized variable slope logarithmic curve. The RSA values of the selected compounds were calculated from their IC50 average means following the equation RSA = hMAO − B IC50/Hmao − A IC50(1)

In experiment [2] the test system is LNCaP cells. The experiment in a line: Antiproliferation dose-response assay for 72 h. The format is cell-based. Particulars: Homo sapiens, mean ± SEM of two experiments, read-out: antiproliferative IC50. On the procedure:
For the top effective KKRs, along with TAX, their potency to reduce the affected PCa cell line growth in a dose-dependent manner was determined using the resazurin fluorescence assay. We followed the same protocols and materials used for the antiproliferation screen assays (Section 4.3.2), with the following modifications. The maximum final KKR concentration used was 40 μM. The concentration of 8X of each KKR working solution in 1% HEPES 7.4 was serially diluted in a 3:1 ratio, compound to buffer, respectively. Each data set was collected from ten data points of 3.7–40 μM range. The control had the KKR substituted with buffer. The related IC50 averages were analyzed for the compounds that affected the cell lines the most.

Experiment [3] has as its system LNCaP cells. The experiment in a line: cells. The format is cell-based, human. Particulars: for effect on LNCaP proliferation and cell morphology: 20 μM, five days, phase contrast; for viability at 20 µM: Homo sapiens, LNCaP, 120 h, read-out: percentage of treated group compared to the viable control. As for the experimental part: The morphological alterations of the LNCaP cells were imaged, and their percentage proliferation rate was measured after five-days of incubation. The method of subculture and treatment were similar to our antiproliferation assay, with slight modifications. Briefly, the cells were seeded in transparent flat-bottom 96-well microplates with 10,000 cells/175 μL/well of […] experimental media. Following overnight incubation, 20 μM concentration level (~2 × IC50) for each of KKR11, 20, 7, 2A, 21, and the standard PIRL were added to the cells for a total volume of 200 μL/well and re-incubated for five-days. On the day of imaging, 20X phase-contrast images of lid-covered treated and control cells were captured using an inverted microscope. Resazurin was then added for viability detection, and the imaged cells in the wells were read after 4.5 h on the Bio-Tek Synergy HTX Multi-reader.

These results are taken from article PMC7249060, “The Antiproliferative Effects of Flavonoid MAO Inhibitors on Prostate Cancer Cells” (Molecules, 2020).

Bounds are passed on as bounds.

Regarding `O=c1cc(-c2ccccc2)oc2cc(Cl)c(Cl)cc12` [KKR21, 6,7-dichloro-2-phenyl-4H-chromen-4-one], the IC50 in experiment [1] was over 800 µM. Besides, the concentration for half-maximal inhibition (IC50) in experiment [2] is over 40 µM. Also, in experiment [3], the “effect on LNCaP proliferation and cell morphology” value is “neither significant effects on LNCaP proliferation nor apparent changes in cell morphology”; the viability at 20 µM amounted to 94%.
For `O=c1c(O)c(-c2ccccc2)oc2c(Cl)cc(Cl)cc12` [KKR7, 6,8-dichloro-3-hydroxy-2-phenyl-4H-chromen-4-one], the IC50 is over 800 µM in experiment [1] and 9.1 µM in experiment [2]. Moreover, the “effect on LNCaP proliferation and cell morphology” value in experiment [3] was “dramatically and differently altered cell morphology with a highly significant loss of proliferation”. The viability at 20 µM in experiment [3] was 25%.
Turning to `COc1cc(O)c(C(=O)/C=C/c2ccc(Cl)c(Cl)c2)c(OC)c1` [KKR11, (E)-3-(3,4-dichlorophenyl)-1-(2-hydroxy-4,6-dimethoxyphenyl)prop-2-en-1-one], in experiment [1], the half-maximal inhibitory concentration (IC50) was found to be 1.12 ± 0.09 µM. Further, the IC50 in experiment [2] came out at 9.5 µM. In addition, in experiment [3], the “effect on LNCaP proliferation and cell morphology” value was “dramatically and differently altered cell morphology with a highly significant loss of proliferation”; the viability at 20 µM came out at 11%.
With `O=C(/C=C/c1ccccc1)c1cc(Cl)cc(Cl)c1O` [KKR20, (E)-1-(3,5-dichloro-2-hydroxyphenyl)-3-phenylprop-2-en-1-one], the IC50 in experiment [1] was 0.79 ± 0.06 µM. Besides, the IC50 in experiment [2] was 9.2 µM. In addition, in experiment [3], the “effect on LNCaP proliferation and cell morphology” value was “dramatically and differently altered cell morphology with a highly significant loss of proliferation”; the viability at 20 µM is 26%.
As for `COc1cc(OC)c2c(=O)c(O)c(/C=C/c3cc(OC)c(OC)c(OC)c3)oc2c1` [KKR2A, (E)-3-hydroxy-5,7-dimethoxy-2-(3,4,5-trimethoxystyryl)-4H-chromen-4-one], the half-inhibitory concentration (IC50) in experiment [1] was found to be 0.2 ± 0.02 µM. The IC50 in experiment [2] is over 40 µM. Moreover, in experiment [3], the “effect on LNCaP proliferation and cell morphology” value was “neither significant effects on LNCaP proliferation nor apparent changes in cell morphology”; the viability at 20 µM was determined as 96%.
